Experimental data reported in patent US11034661B2, “Substituted N′-hydroxycarbamimidoyl-1,2,5-oxadiazole compounds as indoleamine 2,3-dioxygenase IDO inhibitors” (Merck Sharp & Dohme Corp., priority 2017, dated 2021).

How the values were obtained:
[1] = molecular target: IDO1 in human whole blood stimulated with LPS and IFNγ (Homo sapiens (Human), UniProt P14902); assay: IDO1 Human Whole Blood Assay; type: cell-based; conditions: LPS and IFNγ 100 ng/mL, 18 h, kynurenine by LC/MS/MS
Method: IDO1 Human Whole Blood Assay
Compounds to be tested were serially diluted in ten 3-fold steps in DMSO starting from 10 mM. 3 μL of compound dilutions or DMSO alone were then dispensed from the dilution plate into a polypropylene 96-well assay plate containing 97 μL of RPMI using an Echo 555 acoustic liquid handler (Labcyte). LPS and IFNγ was prepared in RPMI to a 10× of final conc. (1000 ng/mL), final concentration is 100 ng/mL.
Human whole blood was drawn in sodium heparin coated tubes from healthy internal donors. Two hundred forty μL of blood was transferred to each of the wells of a v-bottom 96 well plate. Thirty μL of compound was transferred from intermediate dilution plate, and incubated for 15 min. Thirty μL from stimulants was then transferred to blood and mixed thoroughly. Plate was covered with breathable membrane and incubated at 37° C. for overnight (18 h).
On day 2 isotope labeled standard of kynurenine and tryptophan was made in water at 10× concentration and 30 μL was added to the blood at 3 μM final concentration. The assay plates were centrifuged at 300×G for 10 min with no brake to separate plasma from red blood cells. Sixty μL of plasma samples was removed without disturbing red blood cells. Plasma was diluted with RPMI in 1:1 ratio and proteins were precipitated out with two volume of Acetonitrile. The plates was centrifuged at 4000×G for 60 min. Twenty μL of supernatant was carefully transferred to a 384 well plate contain 40 μL of 0.1% formic acid in water and analyzed by LC/MS/MS.
LC/MS/MS analyses were performed using Thermo Fisher's LX4-TSQ Quantum Ultra system. This system consists of four Agilent binary high-performance liquid chromatography (HPLC) pumps and a TSQ Quantum Ultra triple quadruple MS/MS instrument. For each sample, 5 μL were injected onto an Atlantis T3 column (2.1 mm×150 mm, 3 μm particle size) from Waters. The mobile phase gradient pumped at 0.8 mL/min was used to elute the analytes from the column at 25° C. The elution started at 0% B increasing linearly to 25% B at 6.5 min, holding at 25% for 1 min, re-equilibrating to 10 min. Mobile phase A consisted of 0.1% formic acid in water. Mobile phase B consisted of 0.1% of formic acid in acetonitrile. Data was acquired in positive mode using a HESI interface. The operational parameters for the TSQ Quantum Ultra instrument were a spray voltage of 4000 V, capillary temperature of 380° C., vaporizer temperature 400° C., shealth gas 60 arbitrary units, Aux gas 20 arbitrary units, tube lens 85 and collision gas 1.2 mTorr. SRM chromatograms of kynurenine (Q 1: 209.2>Q3:94.0) and internal standard (Q1: 215.3>Q3:98.2) were collected for 90 sec. The peak area was integrated by Xcalibur Quan software. The ratios between the kynurenine generated in the reaction and 2D6-Kynurenine spiked-in internal standard were used to generate percentage inhibition and IC50 values. Compounds were titrated and IC50's were calculated by 4 parameter sigmoidal curve fitting formula.

HIS-tagged IDO1 protein = HIS-tagged IDO1 protein (Homo sapiens (Human), UniProt P14902); assay: IDO1 Enzyme Assay; type: biochemical; conditions: recombinant IDO1 40 nM, tryptophan substrate, fluorescence readout
Sequence of HIS-tagged IDO1 protein (P14902 whole entry): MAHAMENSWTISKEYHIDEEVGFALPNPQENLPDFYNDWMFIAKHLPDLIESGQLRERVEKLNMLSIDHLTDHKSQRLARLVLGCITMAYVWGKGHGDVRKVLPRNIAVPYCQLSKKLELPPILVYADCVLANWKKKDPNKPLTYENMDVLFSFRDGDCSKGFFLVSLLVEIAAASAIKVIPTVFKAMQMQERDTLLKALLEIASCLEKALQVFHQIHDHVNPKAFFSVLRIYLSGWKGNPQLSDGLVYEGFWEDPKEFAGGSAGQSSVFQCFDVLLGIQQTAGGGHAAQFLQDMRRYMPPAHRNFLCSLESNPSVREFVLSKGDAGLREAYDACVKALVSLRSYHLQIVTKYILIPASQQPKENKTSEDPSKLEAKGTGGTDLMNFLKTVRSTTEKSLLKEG
Procedure, shortened: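 Recombinant E. coli-expressed HIS-IDO1 (40 nM final) in 50 mM Tris pH 7.0 with methylene blue, ascorbate and catalase, preincubated with compound 30 min at RT, then tryptophan added and reacted 60 min at RT. Quenched with methyl isonipecotate, heated, fluorescence read (ex 400/em 510 nm); IC50 from four-parameter logistic fit.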

[2] = molecular target: IDO1 in Hela cells stimulated with IFNγ (Homo sapiens (Human), UniProt P14902); assay: IDO1 Cellular Assay in Hela Cells Stimulated with IFNγ; type: cell-based; conditions: IFNγ 100 ng/mL, about 48 hours, fluorescence readout, read-out: IDO1 HELA Cell Assay, IC50
Sequence of IDO1 in Hela cells stimulated with IFNγ (P14902 whole entry): as above
Procedure, shortened: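 IFNγ-stimulated (100 ng/mL) HeLa cells with 300 uM L-tryptophan were incubated with 10-point 3-fold compound dilutions for about 48 h at 37 °C. Kynurenine product was derivatized with methyl isonipecotate overnight and read by fluorescence (ex 400/em 510 nm). Signal was background-corrected using non-IFNγ cells and normalized to DMSO, and IC50 came from a four-parameter logistic fit.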

Sequence of IDO1 in human whole blood stimulated with LPS and IFNγ (P14902 whole entry): as above

IDO1 human whole blood assay, IC50 [1]	IC50 (HIS-tagged IDO1 protein)	IC50 [2]	Structure (SMILES)
666.4 nM	49.3 nM	106 nM	NS(=O)(=O)NCCOc1nonc1/C(=N/O)N[C@H]1Cc2ccc(F)cc21 [Example 1, (S)—N-(4-fluorobicyclo[4.2.0]octa-1(6),2,4-trien-7-yl)-N′-hydroxy-4-(2-(sulfamoylamino)ethoxy)-1,2,5-oxadiazole-3-carboximidamide]
232.5 nM	75.7 nM	93.5 nM	O=C(CO)N1CC(Oc2nonc2/C(=N/O)N[C@H]2Cc3ccc(F)cc32)C1 [Example 2, (S)—N-(4-fluorobicyclo[4.2.0]octa-1(6),2,4-trien-7-yl)-N′-hydroxy-4-((1-(2-hydroxyacetyl)azetidin-3-yl)oxy)-1,2,5-oxadiazole-3-carboximidamide]
185.4 nM	58.5 nM	51.4 nM	CC(=O)NCCOc1nonc1/C(=N/O)N[C@H]1Cc2ccc(F)cc21 [Example 3, (S)—N-(2-((4-(N-(4-fluorobicyclo[4.2.0]octa-1(6),2,4-trien-7-yl)-N′-hydroxycarbamimidoyl)-1,2,5-oxadiazol-3-yl)oxy)ethyl)acetamide]
1414 nM	139 nM	324 nM	O=C(COc1nonc1/C(=N/O)N[C@H]1Cc2ccc(F)cc21)NCCO [Example 4, (S)-2-((4-(N-(4-fluorobicyclo[4.2.0]octa-1(6),2,4-trien-7-yl)-N′-hydroxycarbamimidoyl)-1,2,5-oxadiazol-3-yl)oxy)-N-(2-hydroxyethyl)acetamide]
714.9 nM	114 nM	322 nM	O=C(CO)NCCOc1nonc1/C(=N/O)N[C@H]1Cc2ccc(F)cc21 [Example 5, N-{2-[(4-{N-[(7S)-4-fluorobicyclo[4.2.0]octa-1,3,5-trien-7-yl]-N′-hydroxycarbamimidoyl}-1,2,5-oxadiazol-3-yl)oxy]ethyl}-2-hydroxyacetamide]
351.3 nM	48.3 nM	58.3 nM	CS(=O)(=O)NCCOc1nonc1/C(=N/O)N[C@H]1Cc2ccc(F)cc21 [Example 6, N-[(7S)-4-fluorobicyclo[4.2.0]octa-1,3,5-trien-7-yl]-N′-hydroxy-4-{2-[(methylsulfonyl)amino]ethoxy}-1,2,5-oxadiazole-3-carboximidamide]
1176 nM	72 nM	88.6 nM	C[C@@H](CO)NC(=O)COc1nonc1/C(=N/O)N[C@H]1Cc2ccc(F)cc21 [Example 7, 2-[(4-{N-[(7S)-4-fluorobicyclo[4.2.0]octa-1,3,5-trien-7-yl]-N′-hydroxycarbamimidoyl}-1,2,5-oxadiazol-3-yl)oxy]-N-[(2S)-1-hydroxypropan-2-yl]acetamide]
262.4 nM	74.8 nM	194 nM	NC(=O)NCCOc1nonc1/C(=N/O)NC1Cc2ccc(F)cc21 (stereo not drawn) [Example 11, 4-[2-(carbamoylamino)ethoxy]-N-(4-fluorobicyclo[4.2.0]octa-1,3,5-trien-7-yl)-N′-hydroxy-1,2,5-oxadiazole-3-carboximidamide]
665.5 nM	56 nM	65.9 nM	O=C(c1nc[nH]n1)N1CC(Oc2nonc2/C(=N/O)N[C@H]2Cc3ccc(F)cc32)C1 [Example 30, N-[(7S)-4-fluorobicyclo[4.2.0]octa-1,3,5-trien-7-yl]-N′-hydroxy-4-{[1-(1H-1,2,4-triazole-3-carbonyl)azetidin-3-yl]oxy}-1,2,5-oxadiazole-3-carboximidamide]
503.3 nM	39.8 nM	53 nM	CCC(=O)NCCOc1nonc1/C(=N/O)N[C@H]1Cc2ccc(F)cc21 [Example 33, N-{2-[(4-{N-[(7S)-4-fluorobicyclo[4.2.0]octa-1,3,5-trien-7-yl]-N′-hydroxycarbamimidoyl}-1,2,5-oxadiazol-3-yl)oxy]ethyl}propanamide]
